In one data set the target is VMAT2 (Rattus norvegicus (Rat), UniProt Q01827). The data set is described as follows: [3H]Dopamine ([3H]DA) uptake assay, vesicular preparation. It is filed as biochemical.
The nature of data set [1]: Microsomal stability assay, rat liver microsomes. Conditions: female, Sprague-Dawley, rat, liver microsomes; for CLint scaled at 0.08 µM: pH 7.4, Microsomal stability assays: Clearance; for half-life at 0.08 µM: pH 7.4, Microsomal stability assays: Half-life.
The mark [2] stands for this setting: [3H]DA uptake (Ki) VMAT2, rat striatal synaptic vesicles.
The mark [3] stands for this setting: [3H]DA uptake, rat, read-out: VMAT2 (rat) Inhibition: Mean Ki ± Standard Deviation.

Read-outs that look alike come from different tables or passages of the source.

The text below walks through data of patent US11999676B2, “Vesicular monoamine transporter-2 ligands and their use in the treatment of psychostimulant abuse” (priority 2016, dated 2024).

In the case of `C[C@H](Cc1ccc(Br)cc1)NCCCc1ccccc1` [Compound 12], the Ki – broadly, the equilibrium dissociation constant of an inhibitor or competing ligand from its target – on VMAT2 (setting [2]) stood at 6 ± 1 nM.

Consider `C[C@@H](Cc1ccc(Br)cc1)NCCCc1ccccc1` [Compound 13], for which the Ki at VMAT2 (setting [2]) was 32 ± 4 nM.

Regarding `COc1ccc(C[C@@H](C)NCCCc2ccccc2)cc1` [Compound 27], the affinity at VMAT2 (setting [2]), expressed as Ki, was 45 ± 4 nM.

Turning to `COc1ccc(C[C@H](C)NCCCc2ccccc2)cc1` [Compound 28], the Ki at VMAT2 (setting [2]) was 20 ± 1 nM.

With `CC(C)Nc1ccc(CCCNC(C)Cc2ccc(F)cc2)cc1` (stereo not shown) [Compound 65], on VMAT2 (setting [3]), the Ki turned out to be 112 ± 16.8 nM.

For the molecule `CC(Cc1ccc(F)cc1)NCCCc1ccc(NC=O)cc1` (stereo not shown) [Compound 71], in data set [1], the CLint scaled (in general, the rate of metabolic loss divided by the concentration) at 0.08 µM came to 97.2 mL/min/kg and the half-life (usually how long it takes for the measured level to halve) at 0.08 µM is 30 min.

In data set [1], `CC(Cc1ccc(NC=O)cc1)NCCCc1ccccc1` (stereo not shown) [Compound 78] had a CLint scaled at 0.08 µM of 167 mL/min/kg and a half-life at 0.08 µM of 18 min.

`CC(Cc1ccc(F)cc1)NCCCc1ccc(NC2CCC2)cc1` (stereo not shown) [Compound 93]: the Ki at VMAT2 (setting [3]) worked out at 129 ± 7.41 nM.

Consider `CC(Cc1ccc(N)cc1)NCCCc1ccncc1` (stereo not shown) [Compound 103], for which the Ki on VMAT2 (setting [3]) came to 378 ± 30 nM.

For `CC(Cc1ccc(N)cc1)NCCCc1ccccc1` (stereo not shown) [Compound 106], in data set [1], the CLint scaled at 0.08 µM was 17.9 mL/min/kg and the half-life at 0.08 µM is 156 min.

Take `CC(Cc1ccc([N+](=O)[O-])cc1)NCCCc1ccncc1` (stereo not shown) [Compound 114]: in data set [1], the CLint scaled at 0.08 µM was found to be 95.9 mL/min/kg and the half-life at 0.08 µM was 30 min.

In data set [1], `CC(Cc1ccc([N+](=O)[O-])cc1)NCCCc1ccccc1` (stereo not shown) [Compound 116] showed a CLint scaled at 0.08 µM of over 400 mL/min/kg and a half-life at 0.08 µM of under 6 min.

In data set [1], `CC(Cc1ccc([N+](=O)[O-])cc1)NCCCc1ccc(Br)cc1` (stereo not shown) [Compound 122] gave a CLint scaled at 0.08 µM of over 400 mL/min/kg and a half-life at 0.08 µM of under 6 min.

In data set [1], `CC(Cc1ccc(F)cc1)NCCCc1ccccc1` (stereo not shown) [Compound 127] had an intrinsic metabolic clearance (CLint scaled) at 0.08 µM of over 400 mL/min/kg and a half-life at 0.08 µM of under 6 min.

Regarding `OCC(Cc1ccc(F)cc1)NCCCc1ccncc1` (stereo not shown) [Compound 128], in data set [1], the intrinsic clearance (CLint scaled) at 0.08 µM was under 10 mL/min/kg and the half-life at 0.08 µM is over 240 min.

In data set [1], `CC(Cc1ccc(F)cc1)NCCCn1ccnc1` (stereo not shown) [Compound 135] gave an intrinsic clearance (CLint scaled) at 0.08 µM of under 7 mL/min/kg and a half-life at 0.08 µM of over 240 min.

As to `CC(C)C(Cc1ccc(F)cc1)NCCCc1ccccc1` (stereo not shown) [Compound 136], the inhibition constant (Ki) at VMAT2 (setting [3]) stood at 386 ± 66.4 nM.

In the case of `CS(=O)(=O)c1ccc(CCCNC(CF)Cc2ccc(F)cc2)cc1` (stereo not shown) [Compound 137], the Ki on VMAT2 (setting [3]) came to 182 ± 56.7 nM.

On to `CC(Cc1ccc(F)cc1)NCCCc1ccc(S(C)(=O)=O)cc1` (stereo not shown) [Compound 139], for which, in data set [1], the CLint scaled at 0.08 µM is under 7 mL/min/kg and the half-life at 0.08 µM was over 240 min.

In data set [1], `CC(C)C(Cc1ccc(F)cc1)NCCCc1ccc(Br)cc1` (stereo not shown) [Compound 141] returned an intrinsic metabolic clearance (CLint scaled) at 0.08 µM of over 450 mL/min/kg and a half-life at 0.08 µM of under 6 min.

For the molecule `CC(Cc1ccc(F)cc1)NCCCc1ccc([S+](C)[O-])cc1` (stereo not shown) [Compound 144], the Ki on VMAT2 (setting [3]) is 178 ± 78.9 nM.

Regarding `CC(Cc1ccc(F)cc1)NCCCc1ccc(N(C)C)cc1` (stereo not shown) [Compound 157], in data set [1], the CLint scaled at 0.08 µM was over 400 mL/min/kg and the half-life at 0.08 µM is under 6 min.

In data set [1], `CC(Cc1ccc(F)cc1)NCCCc1ccnc2ccccc12` (stereo not shown) [Compound 163] yielded a CLint scaled at 0.08 µM of over 400 mL/min/kg and a half-life at 0.08 µM of under 6 min.

In data set [1], `CC(Cc1ccc(F)cc1)NCCCc1ccc(-c2ccnn2C)cc1` (stereo not shown) [Compound 167] gave a CLint scaled at 0.08 µM of 111 mL/min/kg and a half-life at 0.08 µM of 24 min.

In data set [1], `CC(Cc1ccncc1)NCCCc1ccc(Br)cc1` (stereo not shown) [Compound 169] gave a CLint scaled at 0.08 µM of 200 mL/min/kg and a half-life at 0.08 µM of 12 min.

As to `COc1ccc(CCCNC(C)Cc2ccncc2)cc1` (stereo not shown) [Compound 173], in data set [1], the CLint scaled at 0.08 µM is 126 mL/min/kg and the half-life at 0.08 µM was 24 min.

For `CC(Cc1ccncc1)NCCCc1ccc(F)cc1` (stereo not shown) [Compound 187], in data set [1], the CLint scaled at 0.08 µM is 150 mL/min/kg and the half-life at 0.08 µM is 18 min.

Turning to `CC(Cc1ccccc1)NCCCc1ccc(-c2cccs2)cc1` (stereo not shown) [Compound 206], the Ki on VMAT2 (setting [3]) was determined as 125 ± 25.4 nM.

`CC(Cc1ccccc1)N(CCCc1ccc(O)cc1)CCCc1ccc(O)cc1` (stereo not shown) [Compound 225]: at VMAT2 (setting [3]), the Ki is 4.99 ± 1.19 nM.
